Laboratory results taken from patent US8017612B2, “Piperazine compound and use thereof as a HCV polymerase inhibitor” (priority 2006, dated 2011).
Where a name gives a salt, the structure may show the parent alone.

Experiments:
[1] = target: T1, HCV polymerase (NS5B) type 1a (Hepatitis C virus genotype 1a, UniProt P26664); assay: Assay of enzyme (HCV polymerase) inhibitory activity, type 1a enzyme; type: biochemical, HCV type 1a (cloned from the blood of patients)
T1 construct: made in house; host or cells: Escherichia coli (by the 'similar method' of the 1b enzyme)
Method in brief: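 Patient-derived type 1a NS5B (C-terminal 47-aa deletion, His-tagged, E. coli-expressed) at 1.5 μg/ml was reacted with 5 μg/ml 3′UTR-containing substrate RNA, 50 μM ATP/GTP/CTP, 2 μM UTP plus [3H]UTP, pH 7.5, 25° C for 60 min. TCA-precipitated RNA radioactivity was counted; IC50 from ± compound.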

[2] = target: T2, HCV polymerase (NS5B) type 1b (Hepatitis C virus genotype 1b, UniProt P26663); assay: Assay of enzyme (HCV polymerase) inhibitory activity, type 1b enzyme; type: biochemical, HCV BK strain (type 1b)
T2 construct: a region encoding NS5B (J Virol 1991 March, 65(3), 1105-13, 544 amino acids after deletion of 47 amino acids on the C-terminal); 6xHis (C); made in house; host or cells: Escherichia coli
Method in brief: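 NS5B from HCV BK strain (type 1b), C-terminal 47 aa deleted, C-terminal His6-tagged, E. coli-expressed, 0.5 μg/ml, with ~450 nt substrate RNA carrying the 3′ UTR (polyU, 3′X) at 5 μg/ml. Incubation 60 min at 25 °C with 50 μM ATP/GTP/CTP, 2 μM UTP plus [3H]UTP, pH 7.5 Tris.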

[3] = HCV polymerase inhibitory activity (IC50), 1a, type 1a enzyme 1.5 μg/ml, 25° C., 60 min
[4] = HCV polymerase inhibitory activity (IC50), 1b, type 1b enzyme 0.5 μg/ml, 25° C., 60 min
[5] = HCV polymerase inhibitory activity IC50, 1a, type 1a enzyme
[6] = HCV polymerase inhibitory activity IC50, 1b, type 1b enzyme

Structure (SMILES)	IC50 [1, 3]	IC50 [2, 4]	IC50 [1, 5]	IC50 [2, 6]
CCC(F)(F)c1ccc(CNC(=O)[C@H]2CN(C(=O)Cc3ccncn3)CCN2S(=O)(=O)c2ccc(OC(F)(F)F)cc2)cc1 [Example 590, (R)-4-(2-pyrimidin-4-yl-acetyl)-1-(4-trifluoromethoxy-benzenesulfonyl)-piperazine-2-carboxylic acid 4-(1,1-difluoro-propyl)-benzylamide]	< 0.1 µM	< 0.1 µM		
O=C(NCc1ccc(OC(F)(F)F)cc1)[C@H]1CN(c2cnc3cccnc3n2)CCN1S(=O)(=O)c1ccc(OC(F)(F)F)cc1 [Example 770, (R)-4-pyrido[2,3-b]pyrazin-3-yl-1-(4-trifluoromethoxy-benzenesulfonyl)-piperazine-2-carboxylic acid 4-trifluoromethoxy-benzylamide]			< 0.1 µM	< 0.1 µM
CCCc1ccc(CNC(=O)[C@H]2CN(c3ccc(C(=O)O)c(F)c3)CCN2S(=O)(=O)c2ccc(CC)cc2)cc1 [Example 889, 4-[(R)-4-(4-ethyl-benzenesulfonyl)-3-(4-propyl-benzylcarbamoyl)-piperazin-1-yl]-2-fluoro-benzoic acid]			> 1 µM	> 1 µM
Cc1ncc2sc(N3CCN(S(=O)(=O)c4ccc(OC(F)(F)C(F)F)cc4)[C@@H](C(=O)NCc4ccc(OC(F)(F)F)cc4)C3)nc2n1 [Example 1051, (R)-4-(5-methyl-thiazolo[4,5-d]pyrimidin-2-yl)-1-[4-(1,1,2,2-tetrafluoro-ethoxy)-benzenesulfonyl]-piperazine-2-carboxylic acid 4-trifluoromethoxy-benzylamide]			< 0.1 µM	< 0.1 µM
CC(=O)N1CCN(S(=O)(=O)c2ccc([N+](=O)[O-])cc2)C(C(=O)NCc2ccc(C(F)(F)F)cc2)C1 (centres unmarked) [Example 40, 4-acetyl-1-(4-nitro-benzenesulfonyl)-piperazine-2-carboxylic acid 4-trifluoromethyl-benzylamide]	> 1 µM	> 1 µM		
CC(=O)N1CCN(S(=O)(=O)c2ccc(Oc3cccnc3)cc2)C(C(=O)NCc2ccc(C(F)(F)F)cc2)C1 (centres unmarked) [Example 66, 4-acetyl-1-[4-(pyridin-3-yloxy)-benzenesulfonyl]-piperazine-2-carboxylic acid 4-trifluoromethyl-benzylamide hydrochloride]	> 1 µM	> 1 µM		
COC(=O)c1ccc(CNC(=O)C2CN(C(C)=O)CCN2S(=O)(=O)c2ccc(C(C)C)cc2)cc1 (centres unmarked) [Example 76, 4-({[4-acetyl-1-(4-isopropyl-benzenesulfonyl)-piperazine-2-carbonyl]-amino}-methyl)-benzoic acid methyl ester]	> 1 µM	> 1 µM		
CC(C)c1ccc(CNC(=O)[C@H]2CN(c3nc4ccccc4s3)CCN2S(=O)(=O)c2ccc(C(F)(F)F)cc2)cc1 [Example 191, (R)-4-benzothiazol-2-yl-1-(4-trifluoromethyl-benzenesulfonyl)-piperazine-2-carboxylic acid 4-isopropyl-benzylamide]	0.1 to 1 µM	0.1 to 1 µM		
CC(=O)N1CCN(S(=O)(=O)c2ccc(C(C)C)cc2)C(C(=O)NCc2ccc(C(C)(C)C)cc2)C1 (centres unmarked) [Example 68, 4-acetyl-1-(4-isopropyl-benzenesulfonyl)-piperazine-2-carboxylic acid 4-tert-butyl-benzylamide]	0.1 to 1 µM	0.1 to 1 µM		
CCCc1ccc(CNC(=O)[C@H]2CN(C(C)=O)CCN2S(=O)(=O)c2ccc(OC(F)(F)F)cc2)cc1N [Example 635, (R)-4-acetyl-1-(4-trifluoromethoxy-benzenesulfonyl)-piperazine-2-carboxylic acid 3-amino-4-propyl-benzylamide]	> 1 µM	0.1 to 1 µM		
CC(=O)N1CCN(S(=O)(=O)c2ccc(OC(F)(F)F)cc2)[C@@H](C(=O)NCc2ccc(OC(F)(F)F)c(F)c2)C1 [Example 1103, (R)-4-acetyl-1-(4-trifluoromethoxy-benzenesulfonyl)-piperazine-2-carboxylic acid 3-fluoro-4-trifluoromethoxy-benzylamide]			0.1 to 1 µM	0.1 to 1 µM
CCCc1ccc(CNC(=O)[C@H]2CN(c3nc(C)c(S(=O)(=O)NC)s3)CCN2S(=O)(=O)c2ccc(OC(F)(F)F)cc2)cc1 [Example 828, (R)-4-(4-methyl-5-methylsulfamoyl-thiazol-2-yl)-1-(4-trifluoromethoxy-benzenesulfonyl)-piperazine-2-carboxylic acid 4-propyl-benzylamide]			< 0.1 µM	< 0.1 µM
O=C(NCc1ccc(OC(F)(F)F)cc1)[C@H]1CN(c2nn3ccc(=O)nc3s2)CCN1S(=O)(=O)c1ccc(OC(F)(F)F)cc1 [Example 977, (R)-4-(7-oxo-7H-[1,3,4]thiadiazolo[3,2-a]pyrimidin-2-yl)-1-(4-trifluoromethoxy-benzenesulfonyl)-piperazine-2-carboxylic acid 4-trifluoromethoxy-benzylamide]			< 0.1 µM	< 0.1 µM
O=C(NCc1ccc(OC(F)(F)F)cc1)[C@H]1CN(c2nc3nc(C4CC4)ncc3s2)CCN1S(=O)(=O)c1ccc(C(F)(F)F)cc1 [Example 983, (R)-4-(5-cyclopropyl-thiazolo[4,5-d]pyrimidin-2-yl)-1-(4-trifluoromethyl-benzenesulfonyl)-piperazine-2-carboxylic acid 4-trifluoromethoxy-benzylamide]			< 0.1 µM	< 0.1 µM
Cc1nc(N2CCN(S(=O)(=O)c3ccc(OC(F)(F)F)cc3)[C@@H](C(=O)NCc3ccc(C(C)C)cc3)C2)sc1C(=O)NCCC(=O)OC(C)(C)C [Example 359, 3-({2-[(R)-3-(4-isopropyl-benzylcarbamoyl)-4-(4-trifluoromethoxy-benzenesulfonyl)-piperazin-1-yl]-4-methyl-thiazole-5-carbonyl}-amino)-propionic acid tert-butyl ester]	< 0.1 µM	< 0.1 µM		
O=C(NCc1ccc(OC(F)(F)F)cc1)[C@H]1CN(c2nc3cn[nH]c(=O)c3s2)CCN1S(=O)(=O)c1ccc(Cl)cc1 [Example 873, (R)-1-(4-chloro-benzenesulfonyl)-4-(7-oxo-6,7-dihydro-thiazolo[4,5-d]pyridazin-2-yl)-piperazine-2-carboxylic acid 4-trifluoromethoxy-benzylamide]			< 0.1 µM	< 0.1 µM
CCOC(=O)COc1ccc(NC(=O)N2CCN(S(=O)(=O)c3ccc(C(F)(F)F)cc3)[C@@H](C(=O)NCc3ccc(C(C)C)cc3)C2)cc1 [Example 245, (4-{[(R)-3-(4-isopropyl-benzylcarbamoyl)-4-(4-trifluoromethyl-benzenesulfonyl)-piperazine-1-carbonyl]-amino}-phenoxy)-acetic acid ethyl ester]	> 1 µM	0.1 to 1 µM		
CC(C)Nc1ncc2sc(N3CCN(S(=O)(=O)c4ccc(OC(F)(F)F)cc4)[C@@H](C(=O)NCc4ccc(OC(F)(F)F)cc4)C3)nc2n1 [Example 973, (R)-4-(5-isopropylamino-thiazolo[4,5-d]pyrimidin-2-yl)-1-(4-trifluoromethoxy-benzenesulfonyl)-piperazine-2-carboxylic acid 4-trifluoromethoxy-benzylamide]			< 0.1 µM	< 0.1 µM
CCC(F)(F)c1ccc(CNC(=O)[C@H]2CN(C(=O)Nn3cnnc3)CCN2S(=O)(=O)c2ccc(OC(F)(F)F)cc2)cc1 [Example 539, (R)-4-(4-trifluoromethoxy-benzenesulfonyl)-piperazine-1,3-dicarboxylic acid 3-[4-(1,1-difluoro-propyl)-benzylamide] 1-[1,2,4]triazol-4-ylamide]	0.1 to 1 µM	0.1 to 1 µM		
